Earlier results in patent US9901523B2, “Oral care products comprising zinc oxide and trimethylglycine” (Colgate-Palmolive Company, priority 2012, dated 2018).

Details: water at 30° C.

SMILES: [O]=[Zn] [Zinc oxide]
- solubility of zinc oxide: about 0.16 mg per 100 ml of water
